Peptide text beside a SMILES is read from it.
Key:
1xSUMO2ΔN11 (mono-SUMO2) = target: T1, 1xSUMO2ΔN11 (mono-SUMO2) (Homo sapiens, UniProt P61956); test: ITC binding to mono-SUMO2 (1xSUMO2ΔN11)
T1 construct: a C-terminal GG motif and a stop codon; GST (N, cleaved yes); made in house; host or cells: E. coli Rosetta 2(DE3)pLysS
Source text: (§1) For expression in Escherichia coli, linear poly-SUMO chains were generated as described previously with slight modifications. After the combined PCR/ligation reaction, the 4×SUMO2-ΔN11 or 4×SUMO1-ΔN15 DNA polymers were separated from smaller polymers by agarose gel electrophoresis and individually extracted (Macherey–Nagel). These were then subjected to a second PCR with primers to create BamHI and XhoI restriction sites, a C-terminal GG motif and a stop codon. The resulting fragments coding for di-, tri- and tetra-SUMO2-ΔN11 or SUMO1-ΔN15 chains were amplified and cloned into pGEX-4T2. […] Each monomer in these chains is separated by RS replacing the natural GG motif. A similar strategy was used to design C-terminally GFP–HA2-tagged linear poly-SUMOs in the copper-inducible Ycplac22 vector for expression in S. cerevisiae. […]
(§2) The mono-SUMOs and linear poly-SUMO1 and poly-SUMO2 proteins as well as all RNF4 constructs were expressed as GST-fusion proteins from E. coli Rosetta™ 2(DE3)pLysS cells (Novagen) cultivated in LB medium with 100 μg/ml ampicillin and 30 μg/ml chloramphenicol after induction with 0.1 mM IPTG at 20°C for 12 h. […]
(§3) Binding of peptides and proteins to SUMOs was investigated by ITC using either a VP-ITC or an ITC200 (GE Healthcare). […] Protein concentrations were determined by measuring the absorption at 280 nm. […]

2xSUMO2ΔN11 (di-SUMO2) = target: T2, 2xSUMO2ΔN11 (di-SUMO2) (Homo sapiens, UniProt P61956); test: ITC binding to linear di-SUMO2 (2xSUMO2ΔN11); details: linear di-SUMO2
T2 construct: Each monomer in these chains is separated by RS replacing the natural GG motif; a C-terminal GG motif and a stop codon; GST (N, cleaved yes); made in house; host or cells: E. coli Rosetta 2(DE3)pLysS
T2 sequence (P61956 with tags, fused parts or gaps): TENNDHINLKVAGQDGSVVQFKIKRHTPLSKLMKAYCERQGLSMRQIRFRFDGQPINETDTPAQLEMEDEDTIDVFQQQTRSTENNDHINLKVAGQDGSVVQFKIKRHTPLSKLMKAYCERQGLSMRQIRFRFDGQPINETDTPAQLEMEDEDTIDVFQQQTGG
Source text: as §1, §2, §3

T1 sequence (P61956 12-93 limits assumed, stated change not applied): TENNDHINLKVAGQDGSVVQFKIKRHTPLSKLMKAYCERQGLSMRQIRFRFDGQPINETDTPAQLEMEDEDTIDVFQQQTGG

Compound | affinity for mono-SUMO2 (1xSUMO2ΔN11 (mono-SUMO2)) | affinity for di-SUMO2 (2xSUMO2ΔN11 (di-SUMO2))
CC[C@H](C)[C@H](NC(=O)[C@@H](NC(=O)[C@H](CCC(=O)O)NC(=O)[C@@H](NC(=O)[C@H](CCCCN)NC(=O)[C@@H](N)CCCCN)C(C)C)C(C)C)C(=O)N[C@@H](CC(=O)O)C(=O)N[C@@H](CC(C)C)C(=O)N[C@H](C(=O)N[C@H](C(=O)N[C@@H](CC(=O)O)C(=O)N[C@@H](CO)C(=O)N[C@@H](CO)C(=O)N[C@@H](CO)C(=O)N[C@@H](CC(=O)O)C(=O)N[C@@H](CCC(=O)O)C(=O)O)[C@@H](C)CC)[C@@H](C)O [PIAS1pep] (H-KKVEVIDLTIDSSSDE-OH; N-terminus and C-terminus assumed) | much stronger than the binding of any RNF4-derived tandem SIM peptide | 
CC[C@H](C)[C@H](NC(=O)[C@@H](NC(=O)[C@H](CCC(=O)O)NC(=O)[C@H](CO)NC(=O)[C@H](CO)NC(=O)[C@H](CO)NC(=O)[C@H](CO)NC(=O)[C@H](CC(=O)O)NC(=O)[C@@H](NC(=O)[C@@H](NC(=O)[C@H](CC(C)C)NC(=O)[C@H](CC(=O)O)NC(=O)[C@@H](NC(=O)[C@@H](NC(=O)[C@H](CCC(=O)O)NC(=O)[C@@H](NC(=O)[C@H](CCCCN)NC(=O)[C@@H](N)CCCCN)C(C)C)C(C)C)[C@@H](C)CC)[C@@H](C)O)[C@@H](C)CC)C(C)C)C(=O)N[C@@H](CC(=O)O)C(=O)N[C@@H](CC(C)C)C(=O)N[C@H](C(=O)N[C@H](C(=O)N[C@@H](CC(=O)O)C(=O)N[C@@H](CO)C(=O)N[C@@H](CO)C(=O)O)[C@@H](C)CC)[C@@H](C)O [2xPIAS1pep, reference compound] (H-KKVEVIDLTIDSSSSEVIDLTIDSS-OH; N-terminus and C-terminus assumed) |  | exceeded the affinities of the RNF4-SIM2/3 peptide
CC[C@H](C)[C@H](NC(=O)[C@H](CCC(=O)O)NC(=O)[C@H](CC(=O)O)NC(=O)CN)C(=O)N[C@H](C(=O)N[C@@H](CC(=O)O)C(=O)N[C@@H](CC(C)C)C(=O)N[C@H](C(=O)N[C@@H](CS)C(=O)N[C@@H](CCC(=O)O)C(=O)N[C@@H](CO)C(=O)N[C@@H](CC(C)C)C(=O)N[C@@H](CCC(=O)O)C(=O)N1CCC[C@H]1C(=O)N[C@H](C(=O)N[C@H](C(=O)N[C@H](C(=O)N[C@@H](CC(=O)O)C(=O)N[C@@H](CC(C)C)C(=O)N[C@H](C(=O)N[C@@H](Cc1c[nH]cn1)C(=O)N[C@@H](CC(N)=O)C(=O)N[C@@H](CC(=O)O)C(=O)N[C@@H](CO)C(=O)O)[C@@H](C)O)C(C)C)C(C)C)C(C)C)[C@@H](C)O)C(C)C [RNF4-SIM2/3pep] (H-GDEIVDLTCESLEPVVVDLTHNDS-OH; N-terminus and C-terminus assumed) |  | very similar to the one of the whole RNF4-SIM domain for di-SUMO2

From article PMC3901395, “Multivalent interactions of the SUMO-interaction motifs in RING finger protein 4 determine the specificity for chains of the SUMO” (Biochemical Journal, 2013)
